# Measured values published in the kinase profiling compilation of Christmann-Franck et al. (2016).
# Columns and labels:
# Assay in all cases: radiometric filter-binding kinase assay, Kinase HotSpot
# Settings in all cases: compound 0.5 µM; ATP 10 µM
# [1] = target: CDK3 CCNE1 (human) (UniProt Q00526+P24864)
# [2] = target: CSK (human) (UniProt P41240)
# [3] = target: DYRK4 (human) (UniProt Q9NR20)
# [4] = target: CAMKK2 (human) (UniProt Q96RR4)
# [5] = target: STK25 (human) (UniProt O00506)
# [6] = target: CDC42BPA (human) (UniProt Q5VT25)
# [7] = target: EPHA2 (human) (UniProt P29317)
# [8] = target: MAP3K2 (human) (UniProt Q9Y2U5)
# [9] = target: ULK1 (human) (UniProt O75385)
# [10] = target: MAP4K5 (human) (UniProt Q9Y4K4)
# [11] = target: CSNK1D (human) (UniProt P48730)
# [12] = target: SRPK1 (human) (UniProt Q96SB4)
# [13] = target: MAP2K1 (human) (UniProt Q02750)
# [14] = target: MAPK1 (human) (UniProt P28482)
# [15] = target: PIM3 (human) (UniProt Q86V86)
# [16] = target: MAP3K9 (human) (UniProt P80192)
# [17] = target: CAMK2G (human) (UniProt Q13555)
# [18] = target: MAPK3 (human) (UniProt P27361)
# [19] = target: CLK4 (human) (UniProt Q9HAZ1)
# [20] = target: TGFBR1 (human) (UniProt P36897)
# [21] = target: SYK (human) (UniProt P43405)
# [22] = target: PAK6 (human) (UniProt Q9NQU5)
# [23] = target: RPS6KA5 KD2 (human) (UniProt O75582)
# [24] = target: NEK4 (human) (UniProt P51957)
# [25] = target: WEE1 (human) (UniProt P30291)
# [26] = target: SRPK3 (human) (UniProt Q9UPE1)
# [27] = target: ZAP70 (human) (UniProt P43403)
# [28] = target: RPS6KA3 KD1 KD2 (human) (UniProt P51812)
# [29] = target: FGFR3 (human) (UniProt P22607)
# [30] = target: GSK3A (human) (UniProt P49840)
# [31] = target: ERBB2 (human) (UniProt P04626)
# [32] = target: EPHB2 (human) (UniProt P29323)
# [33] = target: GRK6 (human) (UniProt P43250)
# [34] = target: EPHB1 (human) (UniProt P54762)
# [35] = target: BTK (human) (UniProt Q06187)
# [36] = target: EPHA5 (human) (UniProt P54756)
# [37] = target: GSK3B (human) (UniProt P49841)
# [38] = target: KDR (human) (UniProt P35968)
# [39] = target: PRKG2 (human) (UniProt Q13237)
# [40] = target: BRSK1 (human) (UniProt Q8TDC3)
# [41] = target: CAMK1 (human) (UniProt Q14012)
# Chain of CAMKK2 (human) (Q96RR4 whole entry, looked up): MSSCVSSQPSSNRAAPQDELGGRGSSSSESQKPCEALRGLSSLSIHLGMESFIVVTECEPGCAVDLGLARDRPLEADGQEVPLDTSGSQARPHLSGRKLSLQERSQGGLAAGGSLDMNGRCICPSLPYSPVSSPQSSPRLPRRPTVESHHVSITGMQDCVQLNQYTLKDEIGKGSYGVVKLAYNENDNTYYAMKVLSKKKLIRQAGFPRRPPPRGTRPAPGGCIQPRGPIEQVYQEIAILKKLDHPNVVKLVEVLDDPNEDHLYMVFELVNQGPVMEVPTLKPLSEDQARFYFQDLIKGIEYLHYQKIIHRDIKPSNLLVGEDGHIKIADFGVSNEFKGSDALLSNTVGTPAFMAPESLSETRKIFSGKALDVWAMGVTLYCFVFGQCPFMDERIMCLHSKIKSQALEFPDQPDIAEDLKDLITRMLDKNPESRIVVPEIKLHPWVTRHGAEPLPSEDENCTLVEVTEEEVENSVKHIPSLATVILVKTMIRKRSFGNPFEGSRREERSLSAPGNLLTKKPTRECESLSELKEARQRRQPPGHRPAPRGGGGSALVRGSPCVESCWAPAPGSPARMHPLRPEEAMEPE
# Chain of CLK4 (human) (Q9HAZ1 whole entry, looked up): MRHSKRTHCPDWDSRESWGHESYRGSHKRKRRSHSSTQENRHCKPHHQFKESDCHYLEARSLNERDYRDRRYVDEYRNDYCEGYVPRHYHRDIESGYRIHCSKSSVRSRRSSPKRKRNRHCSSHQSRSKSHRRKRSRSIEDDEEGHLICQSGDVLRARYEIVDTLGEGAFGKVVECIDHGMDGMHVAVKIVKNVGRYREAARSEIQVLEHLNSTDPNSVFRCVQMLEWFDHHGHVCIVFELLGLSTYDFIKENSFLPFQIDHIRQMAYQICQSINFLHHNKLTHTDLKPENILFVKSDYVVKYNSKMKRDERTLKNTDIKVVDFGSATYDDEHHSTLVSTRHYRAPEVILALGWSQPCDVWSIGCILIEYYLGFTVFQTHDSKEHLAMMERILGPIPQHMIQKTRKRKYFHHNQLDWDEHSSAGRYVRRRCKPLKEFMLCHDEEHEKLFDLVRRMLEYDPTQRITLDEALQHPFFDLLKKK
# Chain of MAPK3 (human) (P27361 whole entry, looked up): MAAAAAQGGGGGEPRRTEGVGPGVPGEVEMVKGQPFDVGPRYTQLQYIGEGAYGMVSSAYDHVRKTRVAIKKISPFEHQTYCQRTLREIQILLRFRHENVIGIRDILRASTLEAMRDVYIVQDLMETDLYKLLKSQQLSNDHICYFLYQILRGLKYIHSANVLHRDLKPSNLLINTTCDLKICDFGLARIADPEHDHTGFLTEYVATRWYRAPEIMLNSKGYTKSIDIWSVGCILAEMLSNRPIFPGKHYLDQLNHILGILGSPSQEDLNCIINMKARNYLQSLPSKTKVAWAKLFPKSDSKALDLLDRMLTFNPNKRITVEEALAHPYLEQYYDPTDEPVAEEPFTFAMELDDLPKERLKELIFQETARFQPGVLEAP
# Chain of MAP2K1 (human) (Q02750 whole entry, looked up): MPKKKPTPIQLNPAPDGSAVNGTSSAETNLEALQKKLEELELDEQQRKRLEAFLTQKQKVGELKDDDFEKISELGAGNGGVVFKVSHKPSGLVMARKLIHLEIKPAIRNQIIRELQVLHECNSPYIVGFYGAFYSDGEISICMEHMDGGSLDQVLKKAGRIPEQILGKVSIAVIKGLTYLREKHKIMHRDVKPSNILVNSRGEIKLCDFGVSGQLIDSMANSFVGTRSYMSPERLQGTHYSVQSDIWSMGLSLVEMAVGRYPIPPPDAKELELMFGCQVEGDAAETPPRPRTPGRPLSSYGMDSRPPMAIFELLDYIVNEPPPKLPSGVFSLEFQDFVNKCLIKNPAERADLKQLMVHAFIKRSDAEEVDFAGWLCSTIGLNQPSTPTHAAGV
# Chain of CDC42BPA (human) (Q5VT25 whole entry, looked up): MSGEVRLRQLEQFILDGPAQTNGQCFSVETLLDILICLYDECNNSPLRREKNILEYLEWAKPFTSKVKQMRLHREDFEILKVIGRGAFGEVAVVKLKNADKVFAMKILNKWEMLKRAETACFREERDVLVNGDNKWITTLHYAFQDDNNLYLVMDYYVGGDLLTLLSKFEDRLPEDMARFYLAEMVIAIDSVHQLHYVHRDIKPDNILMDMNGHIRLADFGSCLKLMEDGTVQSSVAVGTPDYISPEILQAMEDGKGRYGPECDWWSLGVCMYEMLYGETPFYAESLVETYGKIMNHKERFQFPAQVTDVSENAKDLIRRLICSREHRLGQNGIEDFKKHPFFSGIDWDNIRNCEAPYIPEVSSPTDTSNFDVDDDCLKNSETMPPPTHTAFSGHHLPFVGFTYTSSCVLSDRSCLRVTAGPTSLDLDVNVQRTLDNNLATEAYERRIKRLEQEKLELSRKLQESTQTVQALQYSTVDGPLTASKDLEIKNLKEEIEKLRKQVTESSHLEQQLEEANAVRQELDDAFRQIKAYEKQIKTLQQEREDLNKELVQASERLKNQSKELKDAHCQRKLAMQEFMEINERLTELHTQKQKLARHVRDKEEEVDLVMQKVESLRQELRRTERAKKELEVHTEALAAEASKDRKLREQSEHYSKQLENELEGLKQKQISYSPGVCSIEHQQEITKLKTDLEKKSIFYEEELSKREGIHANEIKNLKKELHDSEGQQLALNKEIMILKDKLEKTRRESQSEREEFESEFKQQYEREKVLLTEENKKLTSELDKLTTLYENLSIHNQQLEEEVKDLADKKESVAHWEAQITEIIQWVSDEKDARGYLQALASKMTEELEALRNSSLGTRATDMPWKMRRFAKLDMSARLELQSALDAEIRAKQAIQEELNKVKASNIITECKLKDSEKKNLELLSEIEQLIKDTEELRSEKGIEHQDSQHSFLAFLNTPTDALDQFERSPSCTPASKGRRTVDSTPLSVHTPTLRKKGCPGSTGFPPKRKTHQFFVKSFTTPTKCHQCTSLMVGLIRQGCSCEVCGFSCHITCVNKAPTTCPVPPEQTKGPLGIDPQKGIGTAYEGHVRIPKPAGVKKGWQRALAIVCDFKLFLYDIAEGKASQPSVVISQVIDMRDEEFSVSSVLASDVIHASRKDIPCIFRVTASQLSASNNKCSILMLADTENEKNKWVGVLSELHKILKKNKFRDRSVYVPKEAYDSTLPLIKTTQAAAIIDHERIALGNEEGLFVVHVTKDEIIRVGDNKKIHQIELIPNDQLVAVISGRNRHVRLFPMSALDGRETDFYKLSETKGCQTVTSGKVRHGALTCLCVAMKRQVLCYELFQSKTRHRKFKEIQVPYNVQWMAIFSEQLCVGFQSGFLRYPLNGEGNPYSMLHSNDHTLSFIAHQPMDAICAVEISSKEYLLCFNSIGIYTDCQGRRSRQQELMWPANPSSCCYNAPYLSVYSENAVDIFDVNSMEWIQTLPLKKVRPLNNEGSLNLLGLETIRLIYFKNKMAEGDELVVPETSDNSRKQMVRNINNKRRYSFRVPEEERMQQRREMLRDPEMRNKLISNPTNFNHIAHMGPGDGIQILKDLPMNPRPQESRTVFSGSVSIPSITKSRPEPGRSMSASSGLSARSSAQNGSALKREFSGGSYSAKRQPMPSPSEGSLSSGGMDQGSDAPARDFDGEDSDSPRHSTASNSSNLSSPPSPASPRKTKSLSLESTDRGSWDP
# Chain of RPS6KA5 KD2 (human) (O75582 whole entry, looked up): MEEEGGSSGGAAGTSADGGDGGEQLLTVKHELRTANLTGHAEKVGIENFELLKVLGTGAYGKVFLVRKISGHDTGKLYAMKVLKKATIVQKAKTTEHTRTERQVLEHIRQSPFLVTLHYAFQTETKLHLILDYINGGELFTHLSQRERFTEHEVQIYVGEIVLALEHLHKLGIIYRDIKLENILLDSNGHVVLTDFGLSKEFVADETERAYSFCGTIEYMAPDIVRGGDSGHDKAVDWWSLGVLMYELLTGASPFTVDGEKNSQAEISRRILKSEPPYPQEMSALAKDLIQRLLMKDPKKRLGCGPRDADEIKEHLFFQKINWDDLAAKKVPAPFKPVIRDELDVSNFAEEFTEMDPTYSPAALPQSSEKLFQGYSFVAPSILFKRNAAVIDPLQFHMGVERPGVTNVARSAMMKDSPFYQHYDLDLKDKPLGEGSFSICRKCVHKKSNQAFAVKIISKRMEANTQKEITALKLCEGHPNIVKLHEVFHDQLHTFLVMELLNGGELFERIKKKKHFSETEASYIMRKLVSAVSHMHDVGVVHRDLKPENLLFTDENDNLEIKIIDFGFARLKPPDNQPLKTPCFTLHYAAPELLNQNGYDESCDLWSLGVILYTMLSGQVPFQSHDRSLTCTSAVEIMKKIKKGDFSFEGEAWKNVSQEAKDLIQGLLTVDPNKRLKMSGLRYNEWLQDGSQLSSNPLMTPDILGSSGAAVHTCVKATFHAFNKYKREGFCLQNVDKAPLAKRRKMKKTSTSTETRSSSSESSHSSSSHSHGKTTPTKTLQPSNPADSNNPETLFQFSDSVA
# Chain of ZAP70 (human) (P43403 whole entry, looked up): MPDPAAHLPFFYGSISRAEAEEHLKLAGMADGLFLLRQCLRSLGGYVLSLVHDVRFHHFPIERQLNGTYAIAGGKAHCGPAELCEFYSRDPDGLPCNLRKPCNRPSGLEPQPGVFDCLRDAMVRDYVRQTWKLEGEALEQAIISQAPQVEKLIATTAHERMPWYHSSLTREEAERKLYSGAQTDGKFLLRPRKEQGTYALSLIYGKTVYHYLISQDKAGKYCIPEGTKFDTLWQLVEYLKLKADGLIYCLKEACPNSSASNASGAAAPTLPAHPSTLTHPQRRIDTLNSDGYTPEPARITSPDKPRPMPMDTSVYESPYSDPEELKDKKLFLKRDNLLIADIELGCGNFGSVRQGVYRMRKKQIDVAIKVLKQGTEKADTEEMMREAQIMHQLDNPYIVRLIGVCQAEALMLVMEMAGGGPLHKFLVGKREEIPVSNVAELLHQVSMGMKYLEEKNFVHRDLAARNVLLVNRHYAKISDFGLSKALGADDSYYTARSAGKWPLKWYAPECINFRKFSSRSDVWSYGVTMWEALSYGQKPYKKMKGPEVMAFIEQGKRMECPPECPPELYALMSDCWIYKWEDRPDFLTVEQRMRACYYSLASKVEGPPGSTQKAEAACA
smiles,measurement,setting,value
CO[C@@H]1[C@H](N(C)C(=O)c2ccccc2)C[C@H]2O[C@]1(C)n1c3ccccc3c3c4c(c5c6ccccc6n2c5c31)C(=O)NC4,residual activity,[1],81.9%
same,residual activity,[2],55.1%
same,residual activity,[3],96.4%
same,residual activity,[4],3.9%
same,residual activity,[5],55%
same,residual activity,[6],96%
same,residual activity,[7],92.3%
same,residual activity,[8],30.2%
same,residual activity,[9],99.2%
same,residual activity,[10],7.01%
same,residual activity,[11],101%
same,residual activity,[12],97.1%
same,residual activity,[13],109%
same,residual activity,[14],88.8%
same,residual activity,[15],60.8%
same,residual activity,[16],0.446%
same,residual activity,[17],43.9%
same,residual activity,[18],88.4%
same,residual activity,[19],22.6%
same,residual activity,[20],98.7%
same,residual activity,[21],16.8%
same,residual activity,[22],96.4%
same,residual activity,[23],13.2%
same,residual activity,[24],97.6%
same,residual activity,[25],89.3%
same,residual activity,[26],93.3%
same,residual activity,[27],65.4%
same,residual activity,[28],3.19%
N#Cc1c[nH]c2c[nH]/c(=N\Cc3cccnc3)cc2/c1=N\c1ccc(F)c(Cl)c1,residual activity,[29],91.7%
same,residual activity,[1],95.6%
same,residual activity,[2],95.2%
same,residual activity,[3],84.4%
same,residual activity,[4],90.1%
same,residual activity,[5],95.6%
same,residual activity,[6],80%
same,residual activity,[30],88.5%
same,residual activity,[7],102%
same,residual activity,[8],81.2%
same,residual activity,[9],76.1%
same,residual activity,[10],61.7%
same,residual activity,[31],91.7%
same,residual activity,[11],88.4%
same,residual activity,[12],102%
same,residual activity,[13],86.2%
same,residual activity,[14],105%
same,residual activity,[15],85%
same,residual activity,[32],97.4%
same,residual activity,[16],87.5%
same,residual activity,[17],91.2%
same,residual activity,[33],106%
same,residual activity,[18],100%
same,residual activity,[19],63.3%
same,residual activity,[20],99.6%
same,residual activity,[21],94.4%
same,residual activity,[34],93.1%
same,residual activity,[35],98.3%
same,residual activity,[22],104%
same,residual activity,[23],102%
same,residual activity,[24],71.7%
same,residual activity,[36],90.6%
same,residual activity,[37],99.8%
same,residual activity,[38],96.3%
same,residual activity,[39],90.9%
same,residual activity,[25],74.3%
same,residual activity,[26],96.4%
same,residual activity,[40],94.5%
same,residual activity,[27],103%
same,residual activity,[41],99.1%
same,residual activity,[28],99.1%
CS(=O)(=O)CCNCc1ccc(-c2ccc3ncnc(Nc4ccc(OCc5cccc(F)c5)c(Cl)c4)c3c2)o1,residual activity,[29],96.7%
same,residual activity,[1],94.6%
same,residual activity,[2],106%
same,residual activity,[3],103%
same,residual activity,[4],101%
same,residual activity,[5],102%
same,residual activity,[6],88.2%
same,residual activity,[30],105%
same,residual activity,[7],99%
same,residual activity,[8],123%
same,residual activity,[9],95.4%
same,residual activity,[10],109%
same,residual activity,[11],91.2%
same,residual activity,[12],100%
same,residual activity,[13],105%
same,residual activity,[14],102%
same,residual activity,[15],93.7%
same,residual activity,[32],101%
same,residual activity,[16],112%
same,residual activity,[17],111%
same,residual activity,[33],101%
same,residual activity,[18],94.8%
same,residual activity,[19],115%
same,residual activity,[20],101%
same,residual activity,[21],113%
same,residual activity,[34],104%
same,residual activity,[35],103%
same,residual activity,[22],106%
same,residual activity,[23],98.3%
same,residual activity,[24],98.1%
same,residual activity,[36],103%
same,residual activity,[37],103%
same,residual activity,[38],96.6%
same,residual activity,[39],107%
same,residual activity,[25],97.5%
same,residual activity,[26],104%
same,residual activity,[40],98.6%
same,residual activity,[27],92.5%
same,residual activity,[41],102%
same,residual activity,[28],105%
